In US20240124464A1, “SUBSTITUTED FUSED BICYCLIC COMPOUND AS KINASE INHIBITOR AND USE THEREOF” (IMPACT THERAPEUTICS (SHANGHAI), INC, priority 2020, published 2024):
Positions count from the first letter of the chain named.

Columns and labels:
[1] = molecular target: T1, NUAK1 (Homo sapiens, UniProt O60285); settings: cited from earlier work
T1 sequence (O60285 1-661): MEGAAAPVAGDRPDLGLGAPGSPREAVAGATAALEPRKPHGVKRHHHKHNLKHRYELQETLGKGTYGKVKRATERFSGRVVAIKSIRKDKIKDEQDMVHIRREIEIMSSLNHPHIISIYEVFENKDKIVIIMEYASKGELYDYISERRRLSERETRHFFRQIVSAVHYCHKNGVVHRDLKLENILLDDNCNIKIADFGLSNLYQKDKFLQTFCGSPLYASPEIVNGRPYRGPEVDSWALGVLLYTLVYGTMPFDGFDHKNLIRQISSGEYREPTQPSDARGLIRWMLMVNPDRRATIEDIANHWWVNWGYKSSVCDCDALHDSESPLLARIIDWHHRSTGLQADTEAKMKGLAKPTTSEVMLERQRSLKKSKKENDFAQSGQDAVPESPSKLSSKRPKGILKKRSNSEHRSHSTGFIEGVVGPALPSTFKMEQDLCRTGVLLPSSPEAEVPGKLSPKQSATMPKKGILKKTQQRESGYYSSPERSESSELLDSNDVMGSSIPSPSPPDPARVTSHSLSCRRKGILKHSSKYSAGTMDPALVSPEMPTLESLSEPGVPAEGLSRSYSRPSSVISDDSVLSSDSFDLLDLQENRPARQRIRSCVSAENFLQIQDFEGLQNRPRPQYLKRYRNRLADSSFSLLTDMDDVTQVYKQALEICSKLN

[2] = molecular target: T2, NUAK1 (mutation from Ala to Thr at position 195) (Homo sapiens, UniProt O60285, A195T); settings: cited from earlier work
T2 sequence (O60285 1-661 A195T): T1 sequence (O60285 1-661) with A195T

[3] = system: MEF cells; settings: compared with shRNA knockdown of NUAK1; cited from earlier work
[4] = system: U2OS cell; settings: 3D invasion assay, compared with NUAK1 knockout; cited from earlier work
[5] = molecular target: T3, NUAK1(h) enzyme (Homo sapiens, UniProt O60285); test: In vitro NUAK1 enzymatic assay (Eurofins Discovery, [γ-33P]-ATP filter assay); type: biochemical; settings: 45 μM ATP, 40 min, room temperature; read-out: IC50, inhibitory effect on NUAK1 enzyme activity
T3 construct: purchased Eurofins Discovery
T3 sequence (O60285 1-661): T1 sequence (O60285 1-661)
Protocol: In Vitro Assay to Determine the Inhibitory Effect of Compounds in the Patent on NUAK1 Enzymatic Activity
The in vitro NUAK1 enzymatic assay was carried out at Eurofins Discovery to evaluate the inhibitory effect of the compounds presented in the invention. The assay protocol is as follow: the compound to be tested was mixed with NUAK1(h) enzyme and 300 μM […] substrate in 8 mM MOPS (pH 7.0) buffer containing 0.2 mM EDTA and incubated at room temperature. A Mg/ATP mixture containing 10 mM magnesium acetate and 45 μM [y-33P]-ATP was added to start the reaction. After incubation for 40 min at room temperature, the reaction was terminated by adding 0.5% phosphoric acid. Then, 10 μL of the reaction mix was spotted onto a P30 filter paper followed with four times of wash with 0.425% phosphoric acid solution (4 min each time), and one time wash with methanol. The filter paper was air-dried and counted in a liquid scintillation counter. The values obtained were plotted against the drug concentration and the IC50 was calculated.
Table 1 summarizes the inhibitory effect (IC50) of compounds tested on the NUAK1 enzyme activity in the present invention. ++++ indicates IC50≤10 nM; […]; ++ indicates 100 nM<IC50≤1 μM; + indicates IC50>1 μM.

[6] = molecular target: T4, NUAK2(h) enzyme (Homo sapiens, UniProt Q9H093); test: In vitro NUAK2 enzymatic assay (Eurofins Discovery, [γ-33P]-ATP filter assay); type: biochemical; settings: 45 μM ATP, 40 min, room temperature; read-out: IC50, inhibitory effect on NUAK2 enzyme activity
T4 construct: purchased Eurofins Discovery
T4 sequence (Q9H093 1-628): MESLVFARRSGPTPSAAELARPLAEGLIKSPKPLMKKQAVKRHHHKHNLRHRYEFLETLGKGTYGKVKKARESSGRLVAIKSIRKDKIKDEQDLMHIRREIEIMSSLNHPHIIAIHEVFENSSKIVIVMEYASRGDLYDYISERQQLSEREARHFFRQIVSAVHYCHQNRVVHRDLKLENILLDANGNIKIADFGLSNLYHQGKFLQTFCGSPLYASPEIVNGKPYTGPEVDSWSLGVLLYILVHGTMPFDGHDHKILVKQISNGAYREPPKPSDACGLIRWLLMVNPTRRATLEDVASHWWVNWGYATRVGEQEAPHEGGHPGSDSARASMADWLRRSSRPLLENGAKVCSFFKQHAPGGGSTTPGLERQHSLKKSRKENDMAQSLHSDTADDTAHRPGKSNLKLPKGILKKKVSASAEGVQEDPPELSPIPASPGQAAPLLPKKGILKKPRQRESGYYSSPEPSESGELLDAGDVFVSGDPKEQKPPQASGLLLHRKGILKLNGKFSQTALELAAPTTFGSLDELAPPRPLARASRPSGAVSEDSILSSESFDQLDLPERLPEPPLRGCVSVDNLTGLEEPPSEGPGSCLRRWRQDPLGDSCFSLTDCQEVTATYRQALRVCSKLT
Protocol: In Vitro Assay to Determine the Inhibitory Effect of Compounds in the Patent on NUAK2 Enzymatic Activity
The in vitro NUAK2 enzymatic assay was carried out at Eurofins Discovery to evaluate the inhibitory effect of the compounds presented in the invention. The assay protocol is as follow: the compound to be tested was mixed with NUAK2(h) enzyme and 300 […] substrate in 8 mM MOPS (pH 7.0) buffer containing 0.2 mM EDTA. A Mg/ATP mixture containing 10 mM magnesium acetate and 45 μM [γ-33P]-ATP was added to start the reaction. After incubation for 40 min at room temperature, the reaction was terminated by adding 0.5% phosphoric acid. Then 10 μL of the reaction mix was spotted onto a P30 filter paper. The filter paper was washed four times with 0.425% phosphoric acid with 4 min for each wash, and one time with methanol. The filter paper was air-dried and counted in a liquid scintillation counter. The values obtained were plotted against the drug concentration and the IC50 was calculated.
Table 1 summarizes the inhibitory effect (IC50) of compounds on the NUAK2 enzyme activity in the present invention. ++++ indicates IC50≤10 nM; +++ indicates 10 nM<IC50≤100 nM; ++ indicates 100 nM<IC50≤1 μM; + indicates IC50>1 μM.

[7] = system: HEC-1-B human endometrial cancer cells; test: CTG (CellTiter-Glo) proliferation assay on HEC-1-B cells, 7 days; type: cell-based; settings: 168 h, 7 days incubation, read-out: IC50, inhibitory effect on proliferation of Hec-1B cells
Protocol: CTG Assay to Evaluate the Inhibitory Effect of Compounds on HEC-1-B Human Endometrial Cancer Cells
Human endometrial cancer HEC-1-B cells were resuscitated and cultured in complete medium (MEM medium+10% FBS). When reaching about 80% confluence, the cells were gently blown away from the bottom of the culture dish with a 1 mL pipette. The cells were collected and centrifuged at 500 rpm for 3 min. The supernatant was discarded and the cell pellet was resuspend in fresh medium. Cells were counted to determine cell density and seeded into 96-well plates at a density of 1000 cells per well and incubated overnight at 37° C. in a 5% CO2 incubator. In the next day, the compounds in storage solution was serially diluted with DMSO at a ratio of 1:3 for a total of 9 concentrations. Two μL of each serially diluted solution was added to 98 μL of cell culture medium ([…]), while DMSO was mixed with culture medium similarly to be served as control. The compound dilutions were shaken and mixed. The cell culture plate with cells was removed from CO2 incubator, the culture medium was aspirated from each well, 135 μL of fresh medium was added to each well followed with 15 μL of the compound dilutions. The plates were incubated at 37° C. for 7 days in a 5% CO2 incubator. One hundred μL CellTiter-Glo reagent was added to each well and the plate was vortexed for 2 min and incubated for 10 min to fully lyse the cells. The chemiluminescence values were read using a plate reader.
The chemiluminescence values were plotted against compound concentrations to calculate the inhibitory activity of each compound on cell proliferation Cell inhibition rate (%)=(chemiluminescence value tested compound−chemiluminescence value DMSO control)/(chemiluminescence value medium control−chemiluminescence valueDMSO control)×100%.
A nonlinear S-curve regression was fitted using XLFit software to fit the data to derive a dose-effect curve, from which the IC50 values were calculated. The curve equation was Y=Bottom+(Top-Bottom)/(1+10{acute over ( )}((LogIC50-X)×slope)), where Y is the cellular inhibition rate, X is the compound concentration, Bottom refers to the lowest inhibition rate, and Top refers to the highest inhibition rate.
Table 3 summarizes the inhibitory effects (IC50) of the compounds on the proliferation of Hec-1B cells, Where ++++ indicates 100 nM<IC50≤500 nM; +++ indicates 500 nM<IC50≤1 μM; ++ indicates 1 μM<IC50≤10 μM; + indicates IC50>10 μM.

CCC(=O)Nc1cccc(Oc2nc(Nc3ccc(N4CCN(C)CC4)cc3OC)ncc2Cl)c1 [WZ4003]
inhibition of phosphorylation of MYPT1 by NUAK1 at Ser445 [1]: inhibit the phosphorylation of MYPT1
resistance of NUAK1 Ala195Thr mutant to the inhibitor [2]: 50 fold
inhibition on proliferation against MEF cells [3]: comparable to that of shRNA knockdown of NUAK1
inhibition of U2OS cell invasion [4]: inhibited U2OS cell invasion similarly to NUAK1 knockout did

Cc1nc(Nc2cnn(C3CCNCC3)c2)nc2c1N(C)C(=O)c1cc3ccccc3cc1N2C [HTH-01-015]
inhibition of phosphorylation of MYPT1 by NUAK1 at Ser445 [1]: inhibit the phosphorylation of MYPT1
resistance of NUAK1 Ala195Thr mutant to the inhibitor [2]: 50 fold
inhibition on proliferation against MEF cells [3]: comparable to that of shRNA knockdown of NUAK1
inhibition of U2OS cell invasion [4]: inhibited U2OS cell invasion similarly to NUAK1 knockout did

COc1cc(N2CCN(C)CC2)ccc1Nc1ncc2cnc(=O)n(C3CCCCC3)c2n1 [Example 6, 1-cyclohexyl-7-((2-methoxy-4-(4-methylpiperazin-1-yl)phenyl)amino)pyrimido[4,5-d]pyrimidin-2(1H)-one]
IC50 [5]: 100 to 1000 nM
IC50 [6]: 10 to 100 nM
IC50 [7]: 500 to 1000 nM
